Source: patent US9963462B2 (priority 2015, dated 2018)

Tests used:
[1] = target: SNAP-hSPR (sepiapterin reductase, SPR) (Homo sapiens, UniProt P35270); experiment: biochemical; assay type: binding; conditions: terbium labelled SNAP-hSPR / SSZ labelled SNAP-EGFP; read-out: hTR-FRET IC50
[2] = system: BH4 production in human peripheral blood mononuclear cells (PBMCs); experiment: hPBMC assay, inhibition of BH4 production by LC-MS (anti-CD3/anti-CD28 stimulated); assay type: cell-based; conditions: PBMC, read-out: hPBMC IC50

Chain of SNAP-hSPR (sepiapterin reductase, SPR) (P35270 whole entry): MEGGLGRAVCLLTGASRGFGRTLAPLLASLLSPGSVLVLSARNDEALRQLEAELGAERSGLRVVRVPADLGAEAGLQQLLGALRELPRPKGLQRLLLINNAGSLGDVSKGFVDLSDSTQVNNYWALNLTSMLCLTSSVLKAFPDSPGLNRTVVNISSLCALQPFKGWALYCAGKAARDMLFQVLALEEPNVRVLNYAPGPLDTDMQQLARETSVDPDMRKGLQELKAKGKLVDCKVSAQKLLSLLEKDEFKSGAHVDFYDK

**Q.** How did the IC50 [1] turn out when Cc1c(C(=O)N2C3CCC2CN(C2CCC2)C3)cnn1-c1nn2cccc2c(=O)[nH]1 [Q-1114] was run?
**A.** 1 nM

**Q.** And the IC50 [2]?
**A.** 24 nM

**Q.** For Cc1c(C(=O)N2CCC(c3ccc(F)cn3)CC2)cnn1-c1nn2cccc2c(=O)[nH]1 [Q-1115], which IC50 [1] is on record?
**A.** 1 nM

**Q.** And the IC50 [2]?
**A.** 45 nM

**Q.** Cc1c(C(=O)N2CCC(c3ccc(Cl)nc3)CC2)cnn1-c1nn2cccc2c(=O)[nH]1 [Q-1116] was tested. Which IC50 [1] did it give?
**A.** 1 nM

**Q.** And the IC50 [2]?
**A.** 76 nM

**Q.** How did the IC50 [1] turn out when Cc1c(C(=O)N2CCC(c3cccc(F)n3)CC2)cnn1-c1nn2cccc2c(=O)[nH]1 [Q-1117] was run?
**A.** 1 nM

**Q.** And the IC50 [2]?
**A.** 20 nM

**Q.** For Cc1c(C(=O)N2CCCC(O)(C(F)(F)F)CC2)cnn1-c1nn2cccc2c(=O)[nH]1 (stereo not drawn) [Q-1118], which IC50 [1] is on record?
**A.** 1 nM

**Q.** What about the IC50 [2] of the same compound?
**A.** 110 nM

**Q.** Which results are given for Cc1c(C(=O)N2CCCC(F)(F)CC2)cnn1-c1nn2cccc2c(=O)[nH]1 [Q-1119]?
**A.** IC50 [1]: 2 nM; IC50 [2]: 370 nM

**Q.** What does the source list for Cc1c(C(=O)N2CCN(C3CCC3(F)F)CC2)cnn1-c1nn2cccc2c(=O)[nH]1 (stereo not drawn) [Q-1120]?
**A.** IC50 [1]: 1 nM; IC50 [2]: 97 nM

**Q.** With Cc1c(C(=O)N2CC(c3cccc(F)n3)C2)cnn1-c1nn2cccc2c(=O)[nH]1 [Q-1121] as the compound, how does the IC50 [1] read?
**A.** 1 nM

**Q.** And the IC50 [2]?
**A.** 70 nM

**Q.** How did the IC50 [1] turn out when Cc1c(C(=O)N2C3CCC2CC(C(F)(F)F)C3)cnn1-c1nn2cccc2c(=O)[nH]1 (stereo not drawn) [Q-1122] was run?
**A.** 1 nM

**Q.** And the IC50 [2]?
**A.** 25 nM

**Q.** Cc1c(C(=O)N2CC3CCCC(C2)C3C(F)(F)F)cnn1-c1nn2cccc2c(=O)[nH]1 (stereo not drawn) [Q-1123] was tested. Which IC50 [1] did it give?
**A.** 1 nM

**Q.** And the IC50 [2]?
**A.** 57 nM

**Q.** Cc1c(C(=O)N2CCCC(C(F)(F)F)CC2)cnn1-c1nn2cccc2c(=O)[nH]1 (stereo not drawn) [Q-1124] was tested. Which IC50 [1] did it give?
**A.** 1 nM

**Q.** What about the IC50 [2] of the same compound?
**A.** 35 nM

**Q.** For Cc1nn(-c2nn3cccc3c(=O)[nH]2)cc1C(=O)N1CCN(CC(F)(F)F)CC1 [Q-1125], which IC50 [1] is on record?
**A.** 6 nM

**Q.** And the IC50 [2]?
**A.** 100 nM

**Q.** With C=C1C2CCCC1CN(C(=O)c1cnn(-c3nn4cccc4c(=O)[nH]3)c1C)C2 [Q-1126] as the compound, how does the IC50 [1] read?
**A.** 1 nM

**Q.** And the IC50 [2]?
**A.** 48 nM

**Q.** For Cc1c(C(=O)N2CC(c3ccc(F)cn3)C2)cnn1-c1nn2cccc2c(=O)[nH]1 [Q-1128], which IC50 [1] is on record?
**A.** 2 nM

**Q.** What about the IC50 [2] of the same compound?
**A.** 48 nM

**Q.** Cc1c(C(=O)N2CC(c3cncc(F)c3)C2)cnn1-c1nn2cccc2c(=O)[nH]1 [Q-1129] was tested. Which IC50 [1] did it give?
**A.** 2 nM

**Q.** What about the IC50 [2] of the same compound?
**A.** 50 nM

**Q.** Which results are given for Cc1c(C(=O)N2CC3CCC(C2)C3C(F)(F)F)cnn1-c1nn2cccc2c(=O)[nH]1 (stereo not drawn) [Q-1130]?
**A.** IC50 [1]: 1 nM; IC50 [2]: 57 nM

**Q.** With Cc1c(C(=O)N2CCC(C(C(F)F)C(F)(F)F)CC2)cnn1-c1nn2cccc2c(=O)[nH]1 (stereo not drawn) [Q-1131] as the compound, how does the IC50 [1] read?
**A.** 1 nM

**Q.** What about the IC50 [2] of the same compound?
**A.** 27 nM

**Q.** With CCC1(C(F)(F)F)CCN(C(=O)c2cnn(-c3nn4cccc4c(=O)[nH]3)c2C)CC1 [Q-1132] as the compound, how does the IC50 [1] read?
**A.** 1 nM

**Q.** And the IC50 [2]?
**A.** 40 nM

**Q.** How did the IC50 [1] turn out when Cc1c(C(=O)N2CCN(c3nc(C(F)(F)F)cs3)CC2)cnn1-c1nn2cccc2c(=O)[nH]1 [Q-1134] was run?
**A.** 3 nM

**Q.** And the IC50 [2]?
**A.** 25 nM

**Q.** For Cc1c(C(=O)N2CCN(c3ncc(-c4ccc(Cl)cc4)o3)CC2)cnn1-c1nn2cccc2c(=O)[nH]1 [Q-1135], which IC50 [1] is on record?
**A.** 10 nM

**Q.** And the IC50 [2]?
**A.** 45 nM

**Q.** Cc1c(C(=O)N2CCC(c3nc(-c4ccncc4)cs3)CC2)cnn1-c1nc2c(c(=O)[nH]1)CCC2 [Q-1136] was tested. Which IC50 [1] did it give?
**A.** 2 nM

**Q.** And the IC50 [2]?
**A.** 14 nM

**Q.** How did the IC50 [1] turn out when Cc1c(C(=O)N2CCN(c3nc(C(F)(F)F)co3)CC2)cnn1-c1nn2cccc2c(=O)[nH]1 [Q-1137] was run?
**A.** 3 nM

**Q.** What about the IC50 [2] of the same compound?
**A.** 160 nM

**Q.** For Cc1c(C(=O)N2CCN(c3nc(-c4ccc(Cl)cc4)cs3)CC2)cnn1-c1nn2cccc2c(=O)[nH]1 [Q-1138], which IC50 [1] is on record?
**A.** 20 nM

**Q.** And the IC50 [2]?
**A.** 360 nM

**Q.** What does the source list for Cc1c(C(=O)N2CCN(c3nc(-c4ccc(C(F)(F)F)cc4)cs3)CC2)cnn1-c1nn2cccc2c(=O)[nH]1 [Q-1139]?
**A.** IC50 [1]: 20 nM; IC50 [2]: 420 nM

**Q.** Which IC50 [1] does the source give for Cc1c(C(=O)N2CCN(c3nnc(-c4ccc(Cl)cc4)o3)CC2)cnn1-c1nn2cccc2c(=O)[nH]1 [Q-1140] here?
**A.** 8 nM

**Q.** What about the IC50 [2] of the same compound?
**A.** 230 nM

**Q.** Which results are given for Cc1c(C(=O)N2CCC(C(CCF)C(F)(F)F)CC2)cnn1-c1nn2cccc2c(=O)[nH]1 (stereo not drawn) [Q-1141]?
**A.** IC50 [1]: 1 nM; IC50 [2]: 19 nM

**Q.** Which results are given for Cc1c(C(=O)Nc2c(C(C)(O)C(F)(F)F)cnn2C(C)C)cnn1-c1nn2cccc2c(=O)[nH]1 (stereo not drawn) [Q-1142]?
**A.** IC50 [1]: 1 nM; IC50 [2]: 75 nM
